US8859574B2 (IRM LLC, priority 2008, dated 2014)

target: T1, IGF-1R Ba/F3 (Homo sapiens, UniProt P08069); assay: Ba/F3 Cell Viability Inhibition Assay (IGF-1R Ba/F3); type: cell-based, murine; conditions: Tel-TK transformed Ba/F3 cells, 48 hours, Britelite luminescence
T1 construct: fused on or other part: TEL- (or BCR-) IGF-1R in Ba/F3: the kinase part holds the site
Summary of the method: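 IL-3-independent murine Ba/F3 cells transformed with a TEL/BCR-fused IGF-1R kinase were seeded at 3750 cells/well and exposed to serially diluted compound for 48 h at 37 °C. Viability was read by Britelite luminescence. IC50 is the concentration giving 50% of DMSO-control viability, from a logistic fit.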

T1 sequence (P08069 999-1274 limits assumed): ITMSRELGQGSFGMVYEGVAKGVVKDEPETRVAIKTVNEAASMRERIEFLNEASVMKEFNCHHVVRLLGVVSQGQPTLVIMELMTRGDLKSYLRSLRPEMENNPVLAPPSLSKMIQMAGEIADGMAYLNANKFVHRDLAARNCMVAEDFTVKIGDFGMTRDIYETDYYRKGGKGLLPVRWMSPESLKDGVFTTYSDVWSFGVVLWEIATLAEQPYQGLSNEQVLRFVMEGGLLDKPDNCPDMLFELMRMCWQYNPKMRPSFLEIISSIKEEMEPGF

Question: With Cc1cc(Nc2nc(Nc3cc(C)c(C4CCN(S(=O)(=O)c5cccnc5)CC4)cc3F)ncc2Cl)n[nH]1 [Compound 65, 5-chloro-N2-(2-fluoro-5-methyl-4-(1-(pyridin-3-ylsulfonyl)piperidin-4-yl)phenyl)-N4-(5-methyl-1H-pyrazol-3-yl)pyrimidine-2,4-diamine] as the compound, how does the IC50 read?
Answer: 76 nM

Question: For Cc1cc(Nc2nc(Nc3cc(C)c(C4CCN(C5CCS(=O)(=O)C5)CC4)cc3F)ncc2Cl)n[nH]1 (stereo not drawn) [Compound 145, 5-chloro-N^2-(2-fluoro-5-methyl-4-(1-(tetrahydro-1,1-dioxido-3-thienyl)piperidin-4-yl)phenyl)-N^4-(5-methyl-1H-pyrazol-3-yl)pyrimidine-2,4-diamine], which IC50 is on record?
Answer: 18 nM

Question: Which IC50 does the source give for Cc1cc(Nc2nc(Nc3cc(C)c(C4CCN(C(=O)C5CN(C)C5)CC4)cc3F)ncc2Cl)n[nH]1 [Compound 117, (4-(4-(5-chloro-4-(5-methyl-1H-pyrazol-3-ylamino)pyrimidin-2-ylamino)-5-fluoro-2-methylphenyl)piperidin-1-yl)(1-methylazetidin-3-yl)methanone] here?
Answer: 99 nM

Question: CNC(=O)CN1CCC(c2cc(C)c(Nc3ncc(C(F)(F)F)c(Nc4cc(C)[nH]n4)n3)cc2C)CC1 [Compound 203, 2-(4-(2,5-dimethyl-4-(4-(5-methyl-1H-pyrazol-3-ylamino)-5-(trifluoromethyl)pyrimidin-2-ylamino)phenyl)piperidin-1-yl)-N-methylacetamide] was tested. Which IC50 did it give?
Answer: 15 nM

Question: Which IC50 does the source give for Cc1cc(Nc2nc(Nc3cc(C4CCN(CC(O)C(F)(F)F)CC4)c(F)cc3C)ncc2Cl)n[nH]1 (stereo not drawn) [Compound 31, 3-(4-(5-(5-chloro-4-(5-methyl-1H-pyrazol-3-ylamino)pyrimidin-2-ylamino)-2-fluoro-4-methylphenyl)piperidin-1-yl)-1,1,1-trifluoropropan-2-ol] here?
Answer: 6470 nM

Question: How did the IC50 turn out when CNC1(C(=O)N2CCC(c3cc(F)c(Nc4ncc(Cl)c(Nc5cc(C)[nH]n5)n4)cc3C)CC2)CCC1 [Compound 177, (4-(4-(5-chloro-4-(5-methyl-1H-pyrazol-3-ylamino)pyrimidin-2-ylamino)-5-fluoro-2-methylphenyl)piperidin-1-yl)(1-(methylamino)cyclobutyl)methanone] was run?
Answer: 80 nM

Question: With Cc1cc(Nc2nc(Nc3cc(C)c(C4CCCN(C[C@H](O)C(F)(F)F)C4)cc3C)ncc2Cl)n[nH]1 (stereo partly drawn) [Compound 201, (2S)-3-(3-(4-(5-chloro-4-(5-methyl-1H-pyrazol-3-ylamino)pyrimidin-2-ylamino)-2,5-dimethylphenyl)piperidin-1-yl)-1,1,1-trifluoropropan-2-ol] as the compound, how does the IC50 read?
Answer: 46 nM

Question: Which IC50 does the source give for Cc1cc(Nc2nc(Nc3cc(C)c(C4CCN(CCCS(=O)(=O)N5CCC5)CC4)cc3F)ncc2Cl)n[nH]1 [Compound 243, N2-(4-(1-(3-(azetidin-1-ylsulfonyl)propyl)piperidin-4-yl)-2-fluoro-5-methylphenyl)-5-chloro-N4-(5-methyl-1H-pyrazol-3-yl)pyrimidine-2,4-diamine] here?
Answer: 76 nM

Question: Cc1cc(Nc2nc(Nc3cc(C)c(C4CCN(CCC(F)(F)F)CC4)cc3C)ncc2Cl)n[nH]1 [Compound 25, 5-chloro-N2-(2,5-dimethyl-4-(1-(3,3,3-trifluoropropyl)piperidin-4-yl)phenyl)-N4-(5-methyl-1H-pyrazol-3-yl)pyrimidine-2,4-diamine] was tested. Which IC50 did it give?
Answer: 31 nM

Question: With Cc1cc(Nc2ncc(Cl)c(Nc3cc(C4CC4)[nH]n3)n2)c(F)cc1C1CCN(C2CC2)CC1 [Compound 255, 5-chloro-N4-(5-cyclopropyl-1H-pyrazol-3-yl)-N2-(4-(1-cyclopropylpiperidin-4-yl)-2-fluoro-5-methylphenyl)pyrimidine-2,4-diamine] as the compound, how does the IC50 read?
Answer: 228 nM

Question: How did the IC50 turn out when Cc1cc(Nc2nc(Nc3cc(C)c(C4CCN(C(=O)Cn5cccc5)CC4)cc3F)ncc2Cl)n[nH]1 [Compound 100, 1-(4-(4-(5-chloro-4-(5-methyl-1H-pyrazol-3-ylamino)pyrimidin-2-ylamino)-5-fluoro-2-methylphenyl)piperidin-1-yl)-2-(1H-pyrrol-1-yl)ethanone] was run?
Answer: 25 nM

Question: CNC(=O)CN1CCC(c2cc(C)c(Nc3ncc(Cl)c(Nc4cc(C(F)(F)F)[nH]n4)n3)cc2C)CC1 [Compound 220, 2-(4-(4-(5-chloro-4-(5-(trifluoromethyl)-1H-pyrazol-3-ylamino)pyrimidin-2-ylamino)-2,5-dimethylphenyl)piperidin-1-yl)-N-methylacetamide] was tested. Which IC50 did it give?
Answer: 37 nM

Question: Cc1cc(Nc2nc(Nc3cc(C)c([C@H]4CCN[C@@H](C)C4)cc3F)ncc2Cl)n[nH]1 (relative stereo) [Compound 280, 5-chloro-N2-(2-fluoro-5-methyl-4-((cis)-2-methylpiperidin-4-yl)phenyl)-N4-(5-methyl-1H-pyrazol-3-yl)pyrimidine-2,4-diamine] was tested. Which IC50 did it give?
Answer: 163 nM

Question: Cc1cc(Nc2nc(Nc3cc(C)c(C4CCN(C(=O)CCCN5CCCC5)CC4)cc3C)ncc2Cl)n[nH]1 [Compound 227, 1-(4-(4-(5-chloro-4-(5-methyl-1H-pyrazol-3-ylamino)pyrimidin-2-ylamino)-2,5-dimethylphenyl)piperidin-1-yl)-4-(pyrrolidin-1-yl)butan-1-one] was tested. Which IC50 did it give?
Answer: 123 nM

Question: For Cc1cc(Nc2nc(Nc3cc(C)c(C4CCN(S(=O)(=O)CCCN5C[C@@H](O)[C@H](O)C5)CC4)cc3C)ncc2Cl)n[nH]1 [Compound 196, (3R,4R)-1-(3-(4-(4-(5-chloro-4-(5-methyl-1H-pyrazol-3-ylamino)pyrimidin-2-ylamino)-2,5-dimethylphenyl)piperidin-1-ylsulfonyl)propyl)pyrrolidine-3,4-diol], which IC50 is on record?
Answer: 370 nM

Question: Which IC50 does the source give for Cc1cc(Nc2nc(Nc3cc(C)c(C4CCN(CC(O)C(F)(F)F)CC4)cc3F)ncc2Cl)n[nH]1 (stereo not drawn) [Compound 30, 3-(4-(4-(5-chloro-4-(5-methyl-1H-pyrazol-3-ylamino)pyrimidin-2-ylamino)-5-fluoro-2-methylphenyl)piperidin-1-yl)-1,1,1-trifluoropropan-2-ol] here?
Answer: 71 nM

Question: With Cc1cc(Nc2nc(Nc3cc(C)c(C4CCNCC4)cc3F)ncc2C(F)(F)F)n[nH]1 [Compound 4, N2-(2-fluoro-5-methyl-4-(piperidin-4-yl)phenyl)-N4-(5-methyl-1H-pyrazol-3-yl)-5-(trifluoromethyl)pyrimidine-2,4-diamine] as the compound, how does the IC50 read?
Answer: 150 nM

Question: How did the IC50 turn out when Cc1cc(Nc2nc(Nc3cc(C)c(C4CCN(C(=O)c5ocnc5C)CC4)cc3F)ncc2Cl)n[nH]1 [Compound 136, (4-(4-(5-chloro-4-(5-methyl-1H-pyrazol-3-ylamino)pyrimidin-2-ylamino)-5-fluoro-2-methylphenyl)piperidin-1-yl)(4-methyloxazol-5-yl)methanone] was run?
Answer: 35 nM

Question: With Cc1cc(Nc2nc(Nc3cc(C)c(C4CC[N+]([O-])(C5CS(=O)(=O)C5)CC4)cc3F)ncc2Cl)n[nH]1 (stereo not drawn) [Compound 295, 5-Chloro-N2-{4-[1-(1,1-dioxo-1λ6-thietan-3-yl)-1-oxide-piperidin-4-yl]-2-fluoro-5-methyl-phenyl}-N4-(5-ethyl-1H-pyrazol-3-yl)-pyrimidine-2,4-diamine] as the compound, how does the IC50 read?
Answer: 39 nM

Question: For Cc1cc(Nc2nc(Nc3cc(C)c(C4CCCN(CC(N)=O)C4)cc3C)ncc2Cl)n[nH]1 (stereo not drawn) [Compound 41, 2-(3-(4-(5-chloro-4-(5-methyl-1H-pyrazol-3-ylamino)pyrimidin-2-ylamino)-2,5-dimethylphenyl)piperidin-1-yl)acetamide], which IC50 is on record?
Answer: 26 nM

Question: Cc1cc(Nc2nc(Nc3cc(C)c(C4CCN(Cc5ccccn5)CC4)cc3C)ncc2Cl)n[nH]1 [Compound 307, 5-chloro-N2-(2,5-dimethyl-4-(1-(pyridin-2-ylmethyl)piperidin-4-yl)phenyl)-N4-(5-methyl-1H-pyrazol-3-yl)pyrimidine-2,4-diamine] was tested. Which IC50 did it give?
Answer: 7 nM
